In ChEMBL document CHEMBL5126527, “Emerging targeted protein degradation tools for innovative drug discovery: From classical PROTACs to the novel and beyond” (Eur J Med Chem, 2022):

Experiments:
MOLM-14 = test: Cytotoxicity against human MOLM-14 cells assessed as inhibition of cell growth incubated for 72 hrs by alamar blue assay; format: functional, cell-based; conditions: MOLM-14, 72 h
[1] = molecular target: Protein cereblon/Tyrosine-protein kinase BTK (Homo sapiens, UniProt Q06187+Q96SW2); test: Protac activity at CRBN/BTK in human MOLM-14 cells assessed as induction of BTK degradation incubated for 24 hrs by Western blot analysis; format: cell-based
[2] = molecular target: E3 ubiquitin-protein ligase Mdm2 (Homo sapiens, UniProt Q00987); test: Binding affinity to human MDM2 assessed as inhibition constant by competitive binding based fluorescence polarization analysis
A549 = test: Antiproliferative activity against human A549 cells assessed as cell growth inhibition measured after 72 hrs by CCK-8 assay; format: functional, cell-based; conditions: A549, 72 h

Sequence of E3 ubiquitin-protein ligase Mdm2 (Q00987 whole entry): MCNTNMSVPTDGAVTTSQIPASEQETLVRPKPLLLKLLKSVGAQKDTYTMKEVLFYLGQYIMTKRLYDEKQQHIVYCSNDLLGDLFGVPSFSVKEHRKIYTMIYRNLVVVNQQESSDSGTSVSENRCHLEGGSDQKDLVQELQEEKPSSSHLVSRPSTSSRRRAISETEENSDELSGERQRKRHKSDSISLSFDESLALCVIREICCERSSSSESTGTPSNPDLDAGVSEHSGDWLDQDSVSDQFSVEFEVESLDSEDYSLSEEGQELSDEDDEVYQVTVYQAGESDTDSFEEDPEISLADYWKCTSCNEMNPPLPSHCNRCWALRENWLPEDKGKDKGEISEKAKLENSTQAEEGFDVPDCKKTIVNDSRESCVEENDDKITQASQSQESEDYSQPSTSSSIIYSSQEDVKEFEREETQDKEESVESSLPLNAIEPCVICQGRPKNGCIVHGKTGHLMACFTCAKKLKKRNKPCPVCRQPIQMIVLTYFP
Sequence of Protein cereblon/Tyrosine-protein kinase BTK (Q06187 whole entry): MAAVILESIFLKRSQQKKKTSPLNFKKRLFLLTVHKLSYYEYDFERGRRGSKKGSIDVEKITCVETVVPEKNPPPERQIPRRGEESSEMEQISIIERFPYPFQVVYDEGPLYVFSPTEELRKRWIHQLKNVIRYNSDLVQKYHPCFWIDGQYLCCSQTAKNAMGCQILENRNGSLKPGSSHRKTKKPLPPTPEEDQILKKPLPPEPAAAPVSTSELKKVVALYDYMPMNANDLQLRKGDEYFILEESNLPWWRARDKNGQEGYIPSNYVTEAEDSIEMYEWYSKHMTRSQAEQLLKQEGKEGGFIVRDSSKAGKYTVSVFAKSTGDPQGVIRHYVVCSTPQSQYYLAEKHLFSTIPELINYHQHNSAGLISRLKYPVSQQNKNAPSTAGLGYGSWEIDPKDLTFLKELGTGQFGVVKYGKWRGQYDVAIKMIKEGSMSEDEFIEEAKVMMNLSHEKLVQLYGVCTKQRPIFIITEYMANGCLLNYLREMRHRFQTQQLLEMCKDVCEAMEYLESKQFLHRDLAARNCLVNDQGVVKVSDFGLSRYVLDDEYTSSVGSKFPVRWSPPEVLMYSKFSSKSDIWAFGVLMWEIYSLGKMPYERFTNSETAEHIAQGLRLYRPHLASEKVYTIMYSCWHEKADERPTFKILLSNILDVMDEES
Sequence of Protein cereblon/Tyrosine-protein kinase BTK (Q96SW2 whole entry): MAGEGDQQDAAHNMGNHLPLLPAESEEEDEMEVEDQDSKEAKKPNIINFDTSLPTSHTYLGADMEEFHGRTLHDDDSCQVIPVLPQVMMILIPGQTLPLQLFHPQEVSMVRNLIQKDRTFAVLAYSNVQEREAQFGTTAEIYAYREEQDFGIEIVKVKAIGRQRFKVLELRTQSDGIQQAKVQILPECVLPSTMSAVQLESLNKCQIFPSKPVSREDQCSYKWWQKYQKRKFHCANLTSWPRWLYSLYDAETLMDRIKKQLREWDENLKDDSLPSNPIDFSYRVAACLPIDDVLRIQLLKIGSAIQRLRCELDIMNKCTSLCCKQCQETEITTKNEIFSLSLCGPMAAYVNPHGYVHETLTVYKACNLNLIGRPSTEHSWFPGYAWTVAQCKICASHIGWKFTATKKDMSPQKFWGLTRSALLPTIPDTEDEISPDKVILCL

| EC50 [1] [nM] | SMILES | IC50 (MOLM-14) [nM] | Ki [2] [nM] | IC50 (A549) [nM] |
| --- | --- | --- | --- | --- |
| 6.6 | CN(CCCNC(=O)CNc1cccc2c1C(=O)N(C1CCC(=O)NC1=O)C2=O)C(C)(C)C=C(C#N)C(=O)N1CCC[C@@H](n2nc(-c3ccc(Oc4ccccc4)cc3)c3c(N)ncnc32)C1 (some centres undefined) | 300 |  |  |
|  | CCOc1cc(C(C)(C)C)ccc1C1=NC(c2ccc(Cl)cc2)C(c2ccc(Cl)cc2)N1C(=O)N1CCN(CC(=O)NCCOCCOCCOCCNC(=O)CN2CCN(C(=O)N3C(c4ccc(C(C)(C)C)cc4OCC)=NC(c4ccc(Cl)cc4)C3c3ccc(Cl)cc3)CC2=O)C(=O)C1 (centres undefined) |  | 100 | 1000 |
